Assay results reported in PubChem BioAssay (NCI).
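Test compounds were applied to cells in 96-well plates for 48 hours at 5 doses. GI50: concentration for 50% inhibition of growth. TGI: concentration producing complete growth inhibition.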

Legend:
Assay in all cases: growth of human tumour cells (NCI), 48 h
[1] = system: HS 578T breast
[2] = system: MDA-MB-231 breast
[3] = system: MDA-MB-435
[4] = system: NCI/ADR-RES ovarian
[5] = system: MCF7 breast
[6] = system: DU-145 prostate
[7] = system: BT-549 breast

Compound	GI50 [1]	TGI [1]	GI50 [2]	TGI [2]	GI50 [3]	TGI [3]	GI50 [4]	TGI [4]	GI50 [5]	TGI [5]	GI50 [6]	TGI [6]	GI50 [7]	TGI [7]
CCCCCCCCc1cc(O)ccc1O	15.4 µM	53.5 µM	13 µM	27.3 µM	19.5 µM	49.7 µM	19.3 µM	56.2 µM	24.8 µM	66.8 µM	21.9 µM	52.5 µM	10.9 µM	23.3 µM
COC(=O)[C@@H](C)C[C@H](Cc1ccccc1)NC(=O)c1csc([C@@H](C[C@H](C(C)C)N(C)C(=O)[C@@H](NC(=O)[C@H]2CCCCN2C)C(C(F)(F)F)C(F)(F)F)OC(C)=O)n1	0.047 µM	15.4 µM	0.0734 µM	3.06 µM	0.00437 µM	0.0219 µM	0.346 µM	> 16.7 µM	0.0118 µM	> 16.7 µM	0.047 µM	> 16.7 µM	0.054 µM	0.779 µM
C=C1C(=O)OC2(C)CCC1CC1OC1(C)CCC=C(C)CCC2O (centres undefined)		> 100 µM		> 100 µM		> 100 µM		> 100 µM		> 100 µM		> 100 µM		> 100 µM
COc1ccc(/C=C/C(=O)c2ccc(Nc3nc(Nc4ccc(F)cc4)nc(Nc4ccc(F)cc4)n3)cc2)cc1	14.4 µM	59.6 µM	35.3 µM	> 100 µM	5.8 µM	31.6 µM	5.63 µM	33 µM	5.59 µM	34.3 µM	40.2 µM	> 100 µM	14 µM	36.4 µM
CSc1nc2ccc(C)cc2cc1/C=C1/C=C(c2ccccc2)NC1=O	1.92 µM	7.46 µM	4.42 µM	36.6 µM	0.718 µM	21 µM	3.99 µM	87.5 µM	12.5 µM	> 100 µM	6.72 µM	96.1 µM	3.94 µM	22.9 µM
COc1ccc2c(c1)[nH]c1c3ccc(OC)cc3oc(=O)c21		> 100 µM		> 100 µM		> 100 µM		> 100 µM		> 100 µM		> 100 µM		> 100 µM
Nc1ccn(C2CC3OCC3O2)c(=O)n1 (centres undefined)		> 100 µM		> 100 µM		> 100 µM		> 100 µM		> 100 µM		> 100 µM		> 100 µM
O=C1C(OC(=O)c2ccccc2)=C(c2ccc(O)cc2)C(=O)C(OC(=O)c2ccccc2)=C1c1ccc(O)cc1		> 100 µM		> 100 µM		> 100 µM		> 100 µM		> 100 µM		> 100 µM		> 100 µM
C[C@@H](C[C@H](CCO)c1ccccc1)c1ccc2ccccc2c1	1.69 µM	3.84 µM	1.6 µM	3.19 µM	1.56 µM	2.95 µM	1.66 µM	3.4 µM	1.97 µM	4.04 µM	1.47 µM	2.84 µM	1.68 µM	3.1 µM
CN1CCN(c2nc3cc(F)ccc3n3cccc23)CC1		97.9 µM		> 100 µM		64.6 µM		> 100 µM		> 100 µM				> 100 µM
N=C1C=C(N)C(=O)c2ccccc21	0.353 µM		0.18 µM	0.554 µM	0.163 µM	0.31 µM	0.296 µM	1.01 µM	0.188 µM	0.391 µM	0.191 µM	0.345 µM	0.452 µM	0.929 µM
Cc1nc2sc(C(=O)Nc3ccccc3)c(N)c2cc1C(=O)c1ccccc1	2.47 µM	> 50 µM	3.04 µM	> 50 µM			1.9 µM	> 50 µM	1.73 µM	> 50 µM	1.73 µM	> 50 µM	1.89 µM	> 50 µM
Cn1cc(-c2csc(-c3cn(C(=O)OC(C)(C)C)c4ccccc34)n2)c2cccnc21	3.93 µM	25.7 µM	5.3 µM	20 µM	1.68 µM	22.2 µM	2.33 µM	14.4 µM	2.85 µM	16.3 µM	5.17 µM	21.6 µM	6.87 µM	21.2 µM
CCSc1nc(N)c2cnn(CC)c2n1	4.19 µM	26 µM	2.08 µM	7.29 µM	7.64 µM	37.8 µM	18.5 µM	63.3 µM	16.6 µM	79 µM	5.75 µM	40.3 µM		
O=C(/C=C/c1ccc(Cl)cc1Cl)c1ccc(Cl)cc1Cl	20.1 µM	58.2 µM	4.5 µM	27 µM	16.7 µM	35.3 µM	25.1 µM	> 77.2 µM	7.88 µM	> 24 µM	29.5 µM	> 100 µM	16 µM	36.1 µM
CC1=C(SCCC(=O)OC(C[Se]C2=C(C)C(=O)c3ccccc3C2=O)C(=O)NC(C)(C)C)C(=O)c2ccccc2C1=O (centres undefined)	1.07 µM	3.31 µM	1.49 µM	2.94 µM	1.77 µM	3.77 µM	0.701 µM	1.98 µM	1.62 µM	3.65 µM	1.49 µM	2.82 µM	1.64 µM	3.05 µM
CN(C)CCOc1ccc2c(c1)C(=O)/C(=C\c1ncc([N+](=O)[O-])n1C)C2	1.87 µM	5.37 µM	0.418 µM	2.33 µM	0.209 µM	0.643 µM	1.43 µM	4.55 µM	0.216 µM	2.5 µM	0.234 µM	0.661 µM	0.146 µM	0.529 µM
CCCC(=O)OC(OC(=O)CCC)c1ccc([N+](=O)[O-])o1		> 100 µM		68 µM		47.4 µM		> 100 µM		35.4 µM		> 100 µM		> 100 µM
